From patent US20200016200A1, “MODULATING CYTOTOXIC CELL LYTIC GRANULE POSITIONING TO PROMOTE DIFFUSE KILLING IN CELLULAR THERAPIES” (Baylor College of Medicine, priority 2016, published 2020)
Entries after “also recorded” stand apart in the source; their conditions may differ.

Legend:
Assay type in all cases: cell-based, human
NK92 cells [1] = test: Lytic granule convergence, fixed cell confocal microscopy (granule to MTOC distance); details: NK92 conjugated with K562 target cells; ciliobrevin D 100 μM vs vehicle
Excerpt: (§1) In previous studies, it was shown that granule convergence is dynein-dependent (Mentlik et al., 2010). To further characterize this, regarding the role for convergence in promoting killing efficiency and protecting bystanders, a small molecule dynein inhibitor ciliobrevin D (Firestone et al., 2012) was used to try and block the convergence of lytic granules to the MTOC from their dispersed localization in the cytoplasm. This would allow us to manipulate granule trafficking via blocking the motor protein function, instead of altering activating signal input. YTS, NK92 or eNK cells were treated with either ciliobrevin D or vehicle and conjugated with their respective target cells. […] As a separate measure of granule dispersion, the standard deviation of the granule to MTOC distance was calculated to show the degree of scatter of individual lytic granules. […] CD107a staining was additionally performed to test whether ciliobrevin D treatment affected the exocytosis of lytic granules; the proportion of eNK cells that degranulated after treatment with ciliobrevin D increased (FIG. 13A), whereas in the NK cell lines it decreased (FIG. 13B-13C). In all cases, however, degranulation still occurred in the presence of ciliobrevin D. […]
(§2) Raw image sequences were analyzed using Volocity software. For lytic granules, the centroid of individual lytic granule was designated automatically based on the fluorescence intensity of the corresponding staining (LysoTracker Red or perforin) (Mentlik et al., 2010). For MTOC, in fixed-cell confocal experiments, the point with the highest fluorescence intensity of α-tubulin staining was denoted as the localization of MTOC; in live-cell experiments, the geometric centroid of all the lytic granules in the cell was used to provide a measure of proximity of lytic granule regions. Lytic granule convergence to the MTOC or to the centroid of all granules was measured as previously described (Mentlik et al., 2010). […]

YTS cells [2] = test: as above; details: YTS conjugated with 721.221 target cells; ciliobrevin D 100 μM vs vehicle
Excerpt: as §1, §2

eNK cells = test: as above; details: eNK conjugated with K562 target cells; ciliobrevin D 100 μM vs vehicle
Excerpt: as §1, §2

NK92 cells [3] = test: Standard 4-hour 51Cr cytotoxicity assay; details: ciliobrevin D 100 μM vs DMSO
Description: (§3) FIGS. 13A-13E. The effect of ciliobrevin D on degranulation and the increase of bystander killing by NK cells. Flow cytometry-based degranulation assay of NK cells treated with ciliobrevin D or DMSO as vehicle control. 721.221 cells were used as targets for YTS cells and K562 cells were used as targets for NK92 and eNK cells. DMSO or ciliobrevin D-treated NK cells were mixed with their respective target cells and co-cultured at 37° C. for 2 hours in the presence of anti-CD107a antibody, GolgiStop (BD) and analyzed using flow cytometry. Numbers in the representative flow cytometry plots indicate the percentage of CD107a positive eNK (13A), YTS (13B), or NK92 (13C) cells. Standard 4-hour 51Cr cytotoxicity assay of NK cells treated with ciliobrevin D (100 μM) or DMSO control. NK resistant Raji cells were used as innocent bystander cells. […] Bystander killing of Raji cells by YTS (13D, red) and NK92 (13E, red) cells both increased with ciliobrevin D treatment. Representative experiments from three independent experiments for YTS and NK92 cells were shown.
(§4) Because directed degranulation with converged granules promoted killing efficiency, ciliobrevin D was used to physically prevent convergence in a cell that had received a convergence signal. It was considered that this would allow us to abrogate the killing efficiency benefit imparted by lytic granule convergence. In order to measure killing of both the target and bystander cells in a single experiment, flow cytometry-based cytotoxicity assays were performed, wherein each cell line was labeled with a unique fluorescent dye in the presence of media containing SYTOX Blue viability indicator dye. […] The viability of YTS ([…]), NK92 (FIG. 14E, 14H) and eNK (FIG. 14F, 14I) was not affected by DMSO or ciliobrevin D treatments. […] To ask if it promoted more collateral damage by NK cells 51Cr-labeled Raji cells were added (to serve as innocent bystanders) along with unlabeled 721.221 or K562 target cells. […] YTS or NK92 cells co-cultured with 51Cr-labeled Raji cells in the absence of 721.221 or K562 were unable to kill Raji cells (FIG. 14J). […] Convergence therefore serves to protect innocent bystander cells in complex cellular environments.
(§5) Standard 51Cr-release assays were performed as previously described (Orange et al., 2011). Where indicated, 51Cr51-labeled target or “bystander” cells were mixed with unlabeled target or “bystander” cells to test the indirect lysis of targets. For ADCC, Raji cells were incubated with 20 μg/ml of rituximab in complete R10 medium for 20 min at 37° C., and washed three times before adding to eNK cells.
(§6) Where applicable, YTS, NK92 and eNK cells were pretreated with […] ciliobrevin D (Millipore) for 30 min then washed. […]

YTS cells [4] = test: Standard 4-hour 51Cr cytotoxicity assay; details: ciliobrevin D 100 μM vs DMSO
Description: as §3, §4, §5, §6

**Q.** How did the “lytic granule convergence as determined by mean granule to MTOC distance” value (“lytic granule convergence as determined” for short) (NK92 cells [1]) turn out when `N#CC(C(=O)c1ccc(Cl)cc1Cl)=C1NC(=O)c2ccc(Cl)cc2N1` [ciliobrevin D, 2-(7-chloro-4-oxo-3,4-dihydroquinazolin-2(1H)-ylidene)-3-(2,4-dichlorophenyl)-3-oxopropanenitrile] was run?
**A.** The value was “blocked lytic granule convergence”.

**Q.** What about the “lytic granule convergence as determined” value (YTS cells [2]) of the same compound?
**A.** Its value is “blocked lytic granule convergence”.

**Q.** What about the “lytic granule convergence as determined” value (eNK cells) of the same compound?
**A.** The value was “blocked lytic granule convergence”.

**Q.** What about the “lysis of susceptible target cells (51Cr release)” value (NK92 cells [3]; NK92 against K562) of the same compound?
**A.** Its value is “did not substantively alter total killing; also recorded: not affected”.

**Q.** What about the “non-specific lysis (bystander killing) of 51Cr-labeled Raji cells” value (NK92 cells [3]; NK92 with unlabeled K562 targets) of the same compound?
**A.** The value was “more non-specific lysis; also recorded: increased”.

**Q.** And the “lysis of susceptible target cells (51Cr release)” value (YTS cells [4]; YTS against 721.221)?
**A.** The value was “did not substantively alter total killing; also recorded: slightly increased”.

**Q.** And the “non-specific lysis (bystander killing) of 51Cr-labeled Raji cells” value (YTS cells [4]; YTS with unlabeled 721.221 targets)?
**A.** The value was “more non-specific lysis; also recorded: increased”.
